# Data taken from patent US10143638B2, “Method of treating skin with ingenol mebutate” (LEO Laboratories Limited, priority 2009, dated 2018).
# Key:
# Type in all cases: cell-based, human
# HAS3 = HAS3 gene expression by dermal fibroblasts (qPCR); conditions: TGF-β1 10 ng/ml
# Description: (§1) A normal adult skin biopsy (6 mm) was obtained (n=1), with informed consent, from an individual attending the Oral Surgery Clinic, School of Dentistry, Wales College of Medicine, Cardiff. Following the application of a local anaesthetic, the dermal biopsy was collected and adult dermal fibroblast cultures established by single cell suspension technique, following enzymic degradation of the specimen. This technique has previously been reliably used to establish viable primary cultures of both oral and dermal fibroblasts in vitro (Cook et al, 2000; Stephens et al, 2001; 2003). Dermal fibroblasts were cultured in Fibroblast-Serum Containing Medium, containing Dulbecco's Modified Eagle's Medium (DMEM), supplemented with L-glutamine (2 mM), antibiotics (100 U/ml) penicillin G sodium, […] streptomycin sulphate and 0.25 μg/ml amphotericin B) and 10% foetal calf serum (all purchased from Invitrogen Ltd., Paisley, U.K.). Dermal fibroblast cultures were maintained at 37° C., in a 5% CO2/95% air atmosphere, with the culture medium being changed every 2-3 days. Dermal fibroblasts were used between) passage 7-17, for all experiments.
# (§2) Following trypsinization, dermal fibroblasts were seeded in 24-well tissue culture plates, in PEP005-free, Fibroblast-Serum Containing Medium (1 ml), at a cell density of 2.5×10^4 cell/well. Dermal fibroblasts were maintained at 37° C., in a 5% CO2/95% air atmosphere, overnight. At this stage, the culture medium was replaced with Fibroblast-Serum Containing Medium (600 μl), containing 0 μg/ml, 0.01 μg/ml, 0.1 μg/ml, 1 μg/ml, 10 μg/ml or 100 μg/ml PEP005, +/−TGF-β1 (10 ng/ml) (three culture wells per PEP005 concentration). A control was also established, consisting of cells in Fibroblast-Serum Containing Medium, containing 1% DMSO. The dermal fibroblasts were maintained at 37° C., in a 5% CO2/95% air atmosphere, for 24 h or 72 h, prior to washing in PBS (3×1 ml) and Trizol® Reagent (250 μl) added to the cells, for 5 min at room temperature, to induce cell lysis. RNA was extracted by the phenol-chloroform method, as described above, while a cDNA library was generated via random hexamer RT, as described above. RNA (1 μg) was added to 100 µM random hexamer (1 μl), 5×RT Buffer (4 μl), 2.5 mM Deoxynucleoside Triphosphates (dNTPs, 5 μl), 2 μl DTT and Nuclease-Free Water, were added to the reaction (total volume, 20 μl). To denature the RNA, reaction tubes were placed in a GeneAmp PCR System 9700 (Applied Biosystems, Cheshire, U.K.) and heated for 5 min/95° C., prior to cooling to 4° C. Superscript (1 μl) and RNAsin® Ribonuclease Inhibitor (1 μl, Promega, Hampshire, U.K.) were added to each tube, and the tubes subjected to […] at 20° C. for 10 min, 42° C. for 1 h and 95° C. for 5 min, prior to storage at 4° C., until required. As a negative control, RT was also performed, with Nuclease-Free Water replacing the RNA sample.
# (§3) qPCR was performed, as described above, with the probe and primers for HAS1, HAS2 and HAS3 (target genes) and the 18s ribosomal RNA (reference gene), designed and supplied by Applied Biosystems. PCR was performed in a final volume of 20 μl/sample, with each reaction mix consisting of cDNA (1 μl), target gene primers and probe (1 μl), Taqman® FAST Universal PCR Master Mix (10 μl, Applied Biosystems), and Nuclease-Free Water (8 μl). PCR amplification was performed, using an initial cycle of 95° C. for 1 s, followed by 40 cycles of 60° C. for 20 s. A cDNA-free control was also included. Again, the comparative CT method was used for relative quantification of gene expression. Each experiment was performed on three separate occasions.
# dermal fibroblasts [1] = assay: Hyaluronan pericellular coat formation by dermal fibroblasts (particle exclusion assay); conditions: TGF-β1 10 ng/ml, absence of PEP005, 24 h
# Description: as §1
# Following trypsinization, dermal fibroblasts were seeded in 53 mm bacteriological grade culture dishes (VWR International Ltd., Leicestershire, U.K.), in PEP005-free, Fibroblast-Serum Containing Medium (2 ml), at a density of 7×10^4 cell/dish. Dermal fibroblasts were maintained at 37° C., in a 5% CO2/95% air atmosphere, overnight, prior to washing in PBS (2×2 ml) and maintenance in serum-free, Fibroblast-Serum Containing Medium (2 ml), containing 0 μg/ml, 0.01 μg/ml, 0.1 μg/ml, 1 μg/ml, 10 μg/ml or 100 μg/ml PEP005, +/−TGF-β1 (10 ng/ml) (three culture dishes per PEP005 concentration). A control was also established, consisting of cells in serum-free, Fibroblast-Serum Containing Medium, containing 1% DMSO. The dermal fibroblasts were maintained at 37° C., in a 5% CO2/95% air atmosphere, for 24 h or 72 h. At 24 h and 72 h, the culture dishes were treated with formalized horse blood erythrocytes (TCS Biosciences Ltd., Buckinghamshire, U.K.). The formalized horse blood erythrocytes were washed in PBS, to remove sodium azide (3×20 ml) and centrifuged at 100 g/7 min, at 4° C. The erythrocyte cell pellet obtained was re-suspended in serum-free, Fibroblast-Serum Containing Medium, to a density of 1×10^8 cells/ml. Aliquots of the erythrocyte cell suspension (500 μl) were supplemented to each culture dish and the dishes agitated, prior to maintenance at 37° C., in a 5% CO2/95% air atmosphere, for 15 min. Zones of erythrocyte exclusion were visualized by light microscopy, using a Zeiss Axiovery 135 Inverted Microscope (Carl Zeiss Ltd., Hertfordshire, U.K.), with a Hamamatsun C5985 chilled CCD camera (Hamamatsu Photonics U.K. Ltd., Hertfordshire, U.K.) and using Openlab Software 3.0.8 (Improvision Ltd., Warwickshire, U.K.). Each experiment was performed on three separate occasions.
# dermal fibroblasts [2] = assay: Hyaluronan synthesis by dermal fibroblasts (Hyaluronic Acid Quantitative Test Kit); conditions: TGF-β1 10 ng/ml, absence of PEP005, 24 h
# Description: as §1
# Following trypsinization, dermal fibroblasts were seeded in 24-well tissue culture plates in PEP005-free, Fibroblast-Serum Containing Medium (1 ml), at a cell density of 2.5×10^4 cell/well. Dermal fibroblasts were maintained at 37° C., in a 5% CO2/95% air atmosphere, for 48 h, prior to maintenance in serum-free, Fibroblast-Serum Containing Medium (1 ml), for a further 48 h. At this stage, the serum-free, culture medium was replaced with Fibroblast-Serum Containing Medium (600 μl), containing 0 μg/ml, 0.01 μg/ml, 0.1 μg/ml, 1 μg/ml, 10 μg/ml or 100 μg/ml PEP005, +/−TGF-β1 (10 ng/ml) (three culture wells per PEP005 concentration). A control was also established, consisting of cells in serum-free, Fibroblast-Serum Containing Medium, containing 1% DMSO. The dermal fibroblasts were maintained at 37° C., in a 5% CO2/95% air atmosphere, for 24 h or 72 h, prior to culture medium removal. Hyaluronan synthesis in the collected culture media was quantified, using a Hyaluronic Acid Quantitative Test Kit (Corgenix U.K. Ltd., Cambridgeshire, U.K.), which utilizes a naturally occurring bovine binding protein to hyaluronan. Supernatants were assayed, as per manufacturer's instructions, and optical density measured using a spectrophotometer at 450 nm. Hyaluronan concentrations were determined by comparing the absorbance of the sample against a reference curve prepared from the reagent blank and standards. Each experiment was performed on three separate occasions.
# HAS1 = HAS1 gene expression by dermal fibroblasts (qPCR); conditions: TGF-β1 10 ng/ml
# Description: as §1, §2, §3
# HAS2 = HAS2 gene expression by dermal fibroblasts (qPCR); conditions: TGF-β1 10 ng/ml
# Description: as §1, §2, §3
substance,measurement,setting,value
TGF-β1: TGF-β1 (10 ng/ml) added to dermal fibroblast cultures with or without PEP005 [reference compound],HAS3 expression,"HAS3; absence of PEP005, 24 h (p<0.01)",inhibitory effect
same,HAS3 expression,"HAS3; absence of PEP005, 72 h",inhibitory effect
same,hyaluronan pericellular coat formation,dermal fibroblasts [1],slight increase
same,hyaluronan synthesis,dermal fibroblasts [2],slight stimulation
same,HAS1 expression,"HAS1; absence of PEP005, 24 h, compared to control fibroblasts (p<0.001)",major up-regulation
same,HAS1 expression,"HAS1; absence of PEP005, 72 h, compared to control fibroblasts",up-regulation
same,HAS2 expression,"HAS2; absence of PEP005, 24 h",little effect
same,HAS2 expression,"HAS2; absence of PEP005, 72 h (p>0.05)",minimal effects
